Experimental data published in patent publication US9409905B2, “Antibacterial compounds and methods for use” (PTC THERAPEUTICS, INC., priority 2011, dated 2016).
In brackets after ≈: the same amount, converted by molar mass.

Experiments:
E. coli 25922 = test: Antibacterial activity, microbroth dilution MIC (Table 1); type: cell-based, Escherichia coli; settings: Escherichia coli; microbroth dilution; control Gram-negative E. coli 25922 strain; read-out: MIC, 25922
Method in brief: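 MIC (μg/mL) read as lowest concentration with no macroscopically visible growth; microbroth dilution format. E. coli 25922 served as control Gram-negative strain.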

E. coli LZ3111 = test: Antibacterial activity, MIC, quinolone resistant strain (Table 2); type: cell-based; settings: Escherichia coli, LZ3111, read-out: MIC LZ3111
Method in brief: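 Strain carries mutations conferring high-level quinolone resistance; tested by microbroth dilution, MIC recorded in μg/mL as lowest concentration preventing visible growth.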

[1] = tested on: Staphylococcus aureus (S. aureus) 29213; test: Antibacterial activity, microbroth dilution MIC (Table 1); type: cell-based; settings: microbroth dilution, Gram-positive S. aureus 29213, read-out: MIC, 29213
Method in brief: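 Values are MICs (μg/mL): the smallest drug amount at which macroscopically visible bacterial growth is absent under assay conditions, from a microdilution method in broth.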

[2] = tested on: Escherichia coli (E. coli) BAS849; test: as above; type: cell-based; settings: microbroth dilution, super sensitive Gram-negative E. coli BAS849, read-out: MIC, BAS849
Method in brief: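 Potency is reported as minimum inhibitory concentration in μg/mL, determined by broth microdilution as the lowest level of compound that stops growth visible to the eye.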

SMILES	MIC (E. coli 25922) [µg/mL]	MIC (E. coli LZ3111) [µg/mL]	MIC [1] [µg/mL]	MIC [2] [µg/mL]
CCc1c(-c2ccc3c(c2)cc(CN2C[C@@H](C)N(C)[C@@H](C)C2)n3C)[nH]c(=O)c(C(=O)O)c1O [Cpd 170, 5-ethyl-4-hydroxy-6-(1-methyl-2-(((3S,5R)-3,4,5-trimethylpiperazin-1-yl)methyl)-1H-indol-5-yl)-2-oxo-1,2-dihydropyridine-3-carboxylic acid]	3.5 to 12.5 (≈ 7.73 to 27.6 µM)	12.5 to 150 (≈ 27.6 to 331 µM)	12.5 to 150 (≈ 27.6 to 331 µM)	< 1
CCc1c(-c2ccc3c(c2)cc(CN2C[C@@H](C)O[C@@H](C)C2)n3C)[nH]c(=O)c(C(=O)O)c1O [Cpd 172, 6-(2-(((2S,6R)-2,6-dimethylmorpholino)methyl)-1-methyl-1H-indol-5-yl)-5-ethyl-4-hydroxy-2-oxo-1,2-dihydropyridine-3-carboxylic acid]	12.5 to 150 (≈ 28.4 to 341 µM)	12.5 to 150 (≈ 28.4 to 341 µM)	3.5 to 12.5 (≈ 7.96 to 28.4 µM)	< 1
CCc1c(-c2ccc3c(c2)cc(CN2CCN(C(C)C)CC2)n3C)[nH]c(=O)c(C(=O)O)c1O [Cpd 174, 5-ethyl-4-hydroxy-6-(2-((4-isopropylpiperazin-1-yl)methyl)-1-methyl-1H-indol-5-yl)-2-oxo-1,2-dihydropyridine-3-carboxylic acid]	1 to 3.5 (≈ 2.21 to 7.73 µM)	12.5 to 150 (≈ 27.6 to 331 µM)	3.5 to 12.5 (≈ 7.73 to 27.6 µM)	< 1
CCc1c(-c2ccc3c(c2)cc(CN2CCN(C(C)=O)CC2)n3C)[nH]c(=O)c(C(=O)O)c1O [Cpd 175, 6-(2-((4-acetylpiperazin-1-yl)methyl)-1-methyl-1H-indol-5-yl)-5-ethyl-4-hydroxy-2-oxo-1,2-dihydropyridine-3-carboxylic acid]	3.5 to 12.5 (≈ 7.73 to 27.6 µM)	12.5 to 150 (≈ 27.6 to 331 µM)	1 to 3.5 (≈ 2.21 to 7.73 µM)	< 1
CCc1c(-c2ccc3c(c2)cc(CN2CCC(F)(F)C2)n3C)[nH]c(=O)c(C(=O)O)c1O [Cpd 176, 6-(2-((3,3-difluoropyrrolidin-1-yl)methyl)-1-methyl-1H-indol-5-yl)-5-ethyl-4-hydroxy-2-oxo-1,2-dihydropyridine-3-carboxylic acid]	12.5 to 150 (≈ 29 to 348 µM)	12.5 to 150 (≈ 29 to 348 µM)	1 to 3.5 (≈ 2.32 to 8.11 µM)	< 1
CCc1c(-c2ccc3c(c2)cc(CN2CCC(NC(C)=O)C2)n3C)[nH]c(=O)c(C(=O)O)c1O (centres unmarked) [Cpd 183, 6-(2-((3-acetamidopyrrolidin-1-yl)methyl)-1-methyl-1H-indol-5-yl)-5-ethyl-4-hydroxy-2-oxo-1,2-dihydropyridine-3-carboxylic acid]	1 to 3.5 (≈ 2.21 to 7.73 µM)	12.5 to 150 (≈ 27.6 to 331 µM)	12.5 to 150 (≈ 27.6 to 331 µM)	< 1
CCc1c(-c2ccc3c(c2)cc(CN2CCC[C@H]2C(=O)OC)n3C)[nH]c(=O)c(C(=O)O)c1O [Cpd 190, (S)-5-ethyl-4-hydroxy-6-(2-((2-(methoxycarbonyl)pyrrolidin-1-yl)methyl)-1-methyl-1H-indol-5-yl)-2-oxo-1,2-dihydropyridine-3-carboxylic acid]	12.5 to 150 (≈ 27.6 to 331 µM)	12.5 to 150 (≈ 27.6 to 331 µM)	3.5 to 12.5 (≈ 7.72 to 27.6 µM)	< 1
CCc1c(-c2ccc3c(c2)cc(CN2CCC(C(=O)N(C)C)C2)n3C)[nH]c(=O)c(C(=O)O)c1O (centres unmarked) [Cpd 191, 6-(2-((3-(dimethylcarbamoyl)pyrrolidin-1-yl)methyl)-1-methyl-1H-indol-5-yl)-5-ethyl-4-hydroxy-2-oxo-1,2-dihydropyridine-3-carboxylic acid]	1 to 3.5 (≈ 2.14 to 7.5 µM)	12.5 to 150 (≈ 26.8 to 322 µM)	3.5 to 12.5 (≈ 7.5 to 26.8 µM)	< 1
CCc1c(-c2ccc3c(c2)cc(CN2CC(F)(F)C2)n3C)[nH]c(=O)c(C(=O)O)c1O [Cpd 195, 6-(2-((3,3-difluoroazetidin-1-yl)methyl)-1-methyl-1H-indol-5-yl)-5-ethyl-4-hydroxy-2-oxo-1,2-dihydropyridine-3-carboxylic acid]	3.5 to 12.5 (≈ 8.39 to 29.9 µM)	12.5 to 150 (≈ 29.9 to 359 µM)	1 to 3.5 (≈ 2.4 to 8.39 µM)	< 1
CCc1c(-c2ccc3c(c2)cc(CN2C[C@@H]4[C@H](C2)[C@H]4N(Cc2ccccc2)Cc2ccccc2)n3C)[nH]c(=O)c(C(=O)O)c1O [Cpd 196, 6-(2-(((1R,5S,6s)-6-(dibenzylamino)-3-azabicyclo[3.1.0]hexan-3-yl)methyl)-1-methyl-1H-indol-5-yl)-5-ethyl-4-hydroxy-2-oxo-1,2-dihydropyridine-3-carboxylic acid]	12.5 to 150 (≈ 20.7 to 249 µM)	12.5 to 150 (≈ 20.7 to 249 µM)	12.5 to 150 (≈ 20.7 to 249 µM)	3.5 to 12.5 (≈ 5.81 to 20.7 µM)
CCc1c(-c2ccc3c(c2)cc(CN2C[C@@H]4[C@H](C2)[C@H]4N(C)C)n3C)[nH]c(=O)c(C(=O)O)c1O [Cpd 197, 6-(2-(((1R,5S,6s)-6-(dimethylamino)-3-azabicyclo[3.1.0]hexan-3-yl)methyl)-1-methyl-1H-indol-5-yl)-5-ethyl-4-hydroxy-2-oxo-1,2-dihydropyridine-3-carboxylic acid]	1 to 3.5 (≈ 2.22 to 7.77 µM)	12.5 to 150 (≈ 27.7 to 333 µM)	3.5 to 12.5 (≈ 7.77 to 27.7 µM)	< 1
CCc1c(-c2ccc3c(c2)cc(CN[C@H]2[C@@H]4CNC[C@@H]42)n3C)[nH]c(=O)c(C(=O)O)c1O [Cpd 198, 6-(2-(((1R,5S,6s)-3-azabicyclo[3.1.0]hexan-6-ylamino)methyl)-1-methyl-1H-indol-5-yl)-5-ethyl-4-hydroxy-2-oxo-1,2-dihydropyridine-3-carboxylic acid]	12.5 to 150 (≈ 29.6 to 355 µM)	12.5 to 150 (≈ 29.6 to 355 µM)	12.5 to 150 (≈ 29.6 to 355 µM)	1 to 3.5 (≈ 2.37 to 8.28 µM)
CCc1c(-c2ccc3c(c2)cc(CNCCNC)n3C)[nH]c(=O)c(C(=O)O)c1O [Cpd 204, 5-ethyl-4-hydroxy-6-(1-methyl-2-((2-(methylamino)ethylamino)methyl)-1H-indol-5-yl)-2-oxo-1,2-dihydropyridine-3-carboxylic acid]	3.5 to 12.5 (≈ 8.78 to 31.4 µM)	12.5 to 150 (≈ 31.4 to 376 µM)	12.5 to 150 (≈ 31.4 to 376 µM)	1 to 3.5 (≈ 2.51 to 8.78 µM)
CCc1c(-c2ccc3c(c2)cc(CNCCN)n3C)[nH]c(=O)c(C(=O)O)c1O [Cpd 205, 6-(2-((2-aminoethylamino)methyl)-1-methyl-1H-indol-5-yl)-5-ethyl-4-hydroxy-2-oxo-1,2-dihydropyridine-3-carboxylic acid]	12.5 to 150 (≈ 32.5 to 390 µM)	12.5 to 150 (≈ 32.5 to 390 µM)	12.5 to 150 (≈ 32.5 to 390 µM)	1 to 3.5 (≈ 2.6 to 9.1 µM)
CCc1c(-c2ccc3c(c2)cc(CN2CC(N(C)Cc4ccccc4)C2)n3C)[nH]c(=O)c(C(=O)O)c1O [Cpd 206, 6-(2-((3-(benzyl(methyl)amino)azetidin-1-yl)methyl)-1-methyl-1H-indol-5-yl)-5-ethyl-4-hydroxy-2-oxo-1,2-dihydropyridine-3-carboxylic acid]	3.5 to 12.5 (≈ 6.99 to 25 µM)	12.5 to 150 (≈ 25 to 300 µM)	3.5 to 12.5 (≈ 6.99 to 25 µM)	< 1
CCc1c(-c2ccc3c(c2)cc(CN2CC(N(C)CCN(C)C)C2)n3C)[nH]c(=O)c(C(=O)O)c1O [Cpd 207, 6-(2-((3-((2-(dimethylamino)ethyl)(methyl)amino)azetidin-1-yl)methyl)-1-methyl-1H-indol-5-yl)-5-ethyl-4-hydroxy-2-oxo-1,2-dihydropyridine-3-carboxylic acid]	12.5 to 150 (≈ 26 to 311 µM)	12.5 to 150 (≈ 26 to 311 µM)	12.5 to 150 (≈ 26 to 311 µM)	1 to 3.5 (≈ 2.08 to 7.27 µM)
CCc1c(-c2ccc3c(c2)cc(CN(C)C2CC2)n3C)[nH]c(=O)c(C(=O)O)c1O.Cl [Cpd 212, 6-(2-((cyclopropyl(methyl)amino)methyl)-1-methyl-1H-indol-5-yl)-5-ethyl-4-hydroxy-2-oxo-1,2-dihydropyridine-3-carboxylic acid hydrochloride]	1 to 3.5	12.5 to 150	1 to 3.5	< 1
CCc1c(-c2ccc3c(c2)cc(CNc2ccccc2)n3C)[nH]c(=O)c(C(=O)O)c1O [Cpd 213, 5-ethyl-4-hydroxy-6-(1-methyl-2-((phenylamino)methyl)-1H-indol-5-yl)-2-oxo-1,2-dihydropyridine-3-carboxylic acid]	12.5 to 150 (≈ 29.9 to 359 µM)	12.5 to 150 (≈ 29.9 to 359 µM)	1 to 3.5 (≈ 2.4 to 8.38 µM)	< 1
CCc1c(-c2ccc3c(c2)cc(CN[C@H](C)c2ccccc2)n3C)[nH]c(=O)c(C(=O)O)c1O.Cl [Cpd 215, (R)-5-ethyl-4-hydroxy-6-(1-methyl-2-((1-phenylethylamino)methyl)-1H-indol-5-yl)-2-oxo-1,2-dihydropyridine-3-carboxylic acid hydrochloride]	1 to 3.5	12.5 to 150	1 to 3.5	< 1
CCc1c(-c2ccc3c(c2)cc(CN[C@@H](C)c2ccccc2)n3C)[nH]c(=O)c(C(=O)O)c1O.Cl [Cpd 216, (S)-5-ethyl-4-hydroxy-6-(1-methyl-2-((1-phenylethylamino)methyl)-1H-indol-5-yl)-2-oxo-1,2-dihydropyridine-3-carboxylic acid hydrochloride]	1 to 3.5	12.5 to 150	1 to 3.5	< 1
